Experimental findings from patent US6111132A, “Compounds and methods for synthesis and therapy” (priority 1998, dated 2000) are described below.

Structures are written as SMILES.

As a reminder, the IC50 is the concentration that inhibits the measured activity by half. Higher therefore signals lower potency.

Sequence of Neuraminidase Flu B (P03474 whole entry): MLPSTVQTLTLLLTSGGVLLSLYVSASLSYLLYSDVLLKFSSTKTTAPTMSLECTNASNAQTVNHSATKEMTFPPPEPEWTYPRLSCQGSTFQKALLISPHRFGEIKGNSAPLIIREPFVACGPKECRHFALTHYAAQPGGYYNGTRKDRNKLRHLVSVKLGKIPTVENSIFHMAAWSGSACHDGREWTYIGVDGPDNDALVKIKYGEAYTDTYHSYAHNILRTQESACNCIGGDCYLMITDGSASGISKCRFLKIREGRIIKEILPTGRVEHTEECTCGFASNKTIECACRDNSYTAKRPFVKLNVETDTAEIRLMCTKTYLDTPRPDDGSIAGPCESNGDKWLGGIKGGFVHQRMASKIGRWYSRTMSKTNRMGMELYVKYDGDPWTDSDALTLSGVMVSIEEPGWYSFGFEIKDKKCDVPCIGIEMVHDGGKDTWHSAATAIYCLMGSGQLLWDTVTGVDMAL

For one assay, the target named is Neuraminidase Flu A. The assay is described as follows: Neuraminidase inhibition in vitro, Flu A. The class given is biochemical, influenza virus A. The text has this: Compositions of the invention are screened for inhibitory activity against neuraminidase by any of the conventional techniques for evaluating enzyme activity.
(§1) Useful in vitro screens have been described in detail and will not be elaborated here. However, von Itzstein, M. et al.; "Nature", 363(6428):418-423 (1993), in particular page 420, column 2, full paragraph 3, to page 421, column 2, first partial paragraph, describes a suitable in vitro assay of Potier, M.; et al.; "Analyt. Biochem.", 94:287-296 (1979), as modified by Chong, A. K. J.; et al.; "Biochem. Biophys. Acta", 1077:65-71 (1991); and Colman, P. M.; et al.; International Publication No. WO 92/06691 (Int. App. No. PCT/AU90/00501, publication date Apr. 30, 1992) page 34, line 13, to page 35, line 16, describes another useful in vitro screen.
`CCCCN(C)[C@@H]1C=C(C(=O)O)C[C@H](N)[C@H]1NC(C)=O` [Compound 5b] returned an IC50 of 180 nM.

`CCC(CC)N(C)[C@@H]1C=C(C(=O)O)C[C@H](N)[C@H]1NC(C)=O` [Compound 5c] had a 50% inhibitory concentration (IC50) of 6 nM.

Turning to `CCC(CC)CN(C)[C@@H]1C=C(C(=O)O)C[C@H](N)[C@H]1NC(C)=O` [Compound 5d], the 50% inhibitory concentration (IC50) amounted to 120 nM.

Consider `CC(=O)N[C@H]1[C@H](N(C)CCc2ccccc2)C=C(C(=O)O)C[C@@H]1N` [Compound 5e], for which half-maximal inhibition (IC50) required 100 nM.

As for `CC(=O)N[C@H]1[C@H](N(C)C2CCCCC2)C=C(C(=O)O)C[C@@H]1N` [Compound 5f], half-maximal inhibition (IC50) was put at 200 nM.

In the case of `CCCN(CC)[C@@H]1C=C(C(=O)O)C[C@H](N)[C@H]1NC(C)=O` [Compound 5g], the 50% inhibitory concentration (IC50) turned out to be 90 nM.

`CCCCN(CC)[C@@H]1C=C(C(=O)O)C[C@H](N)[C@H]1NC(C)=O` [Compound 5h] gave an IC50 of 85 nM.

`CCCN(CCC)[C@@H]1C=C(C(=O)O)C[C@H](N)[C@H]1NC(C)=O` [Compound 5i]: the IC50 came to 12 nM.

`CCCN(CC1CC1)[C@@H]1C=C(C(=O)O)C[C@H](N)[C@H]1NC(C)=O` [Compound 5j]: 50 nM corresponded to half-maximal inhibition (IC50).

`CC(=O)N[C@H]1[C@H](N2CCCC2)C=C(C(=O)O)C[C@@H]1N` [Compound 5k] came in with an IC50 of 400 nM.

With `CC(=O)N[C@H]1[C@H](N2CCCCC2)C=C(C(=O)O)C[C@@H]1N` [Compound 5l], the midpoint of inhibition, the IC50, lay at 30 nM.

Molecule `CC(=O)N[C@H]1[C@H](N2CCOCC2)C=C(C(=O)O)C[C@@H]1N` [Compound 5m] returned an IC50 of 200 nM.

The molecule `CCC(CC)N[C@@H]1C=C(C(=O)O)C[C@H](N)[C@H]1NC(C)=O` [Compound 12a] came in with a concentration for half-maximal inhibition (IC50) of 11.5 nM.

On to `CCCN[C@@H]1C=C(C(=O)O)C[C@H](N)[C@H]1NC(C)=O` [Compound 12b], for which the IC50 amounted to 200 nM.

A further assay addresses Neuraminidase Flu B (Influenza B virus, UniProt P03474). As to the kind of experiment: biochemical.
Excerpt: Compositions of the invention are screened for inhibitory activity against neuraminidase by any of the conventional techniques for evaluating enzyme activity. Within the context of the invention, typically compositions are first screened for inhibition of neuraminidase in vitro and compositions showing inhibitory activity are then screened for activity in vivo.
as §1
Enzyme Inhibition: Using the methods of screening in vitro activity described above, the following activities were observed: […]
In turn, `CC(=O)N[C@H]1[C@H](N2CCCCC2)C=C(C(=O)O)C[C@@H]1N` [Compound 5l] returned a half-inhibitory concentration (IC50) of 3 nM.
